Measurements as given in the C3SDB collision cross section collection.

Conditions: instrument: DT, single field, calibrated with Agilent tune mix (Agilent)

## CNCCCC[C@H](N)C(=O)O [N6-Methyl-L-lysine]
[M+H]+
  collision cross section (N2): 132.5 Å²
[M-H]-
  collision cross section (N2): 134.21 Å²

## CC(O)C(=O)SC[C@H](NC(=O)CC[C@H](N)C(=O)O)C(=O)NCC(=O)O (some centres undefined) [S-Lactoylglutathione]
[M+H]+
  collision cross section (N2): 187.7 Å²
[M+Na-2H]-
  collision cross section (N2): 176.59 Å²

## NCCP(=O)(O)O [Ciliatine]
[M+H]+
  collision cross section (N2): 128.7 Å²
[M-H]-
  collision cross section (N2): 118.25 Å²

## Nc1nc(=O)c2ncn([C@@H]3O[C@H](COP(=O)(O)O)[C@@H](O)[C@H]3O)c2[nH]1 [Guanosine 5'-monophosphate]
[M+H]+
  collision cross section (N2): 178.9 Å²

## NCc1[nH]cc(CCC(=O)O)c1CC(=O)O [Porphobilinogen]
[M+Na]+
  collision cross section (N2): 148.1 Å²
[M-H]-
  collision cross section (N2): 146.22 Å²

## N[C@@H](CCCCN[C@@H](CCC(=O)O)C(=O)O)C(=O)O [L-Saccharopine]
[M+2Na-3H]-
  collision cross section (N2): 163.17 Å²
[M+H]+
  collision cross section (N2): 159.8 Å²

## CC(C)(CO)[C@@H](O)C(=O)NCCC(=O)NCCS [Pantetheine]
[M+H-H2O]+
  collision cross section (N2): 164.6 Å²
[M+Na-2H]-
  collision cross section (N2): 164.94 Å²

## Nc1c(O)cccc1C(=O)C[C@H](N)C(=O)O [3-Hydroxy-L-kynurenine]
[M+H-H2O]+
  collision cross section (N2): 137.5 Å²

## O=C(O)CNC(=O)CCc1ccccc1 [Phenylpropionylglycine]
[M+Na]+
  collision cross section (N2): 145.5 Å²
[M-H]-
  collision cross section (N2): 153.3 Å²

## C[S+](CC[C@H](N)C(=O)[O-])C[C@H]1O[C@@H](n2cnc3c(N)ncnc32)[C@H](O)[C@@H]1O (some centres undefined) [S-Adenosylmethionine]
[M+H]+
  collision cross section (N2): 184.5 Å²

## CC(=O)NCCc1c[nH]c2ccc(O)cc12 [N-Acetylserotonin]
[M+H]+
  collision cross section (N2): 149.8 Å²
[M-H]-
  collision cross section (N2): 148.65 Å²

## Nc1ncnc2c1ncn2[C@@H]1O[C@H](CSCC[C@H](N)C(=O)O)[C@@H](O)[C@H]1O [S-Adenosyl-L-homocysteine]
[M+H]+
  collision cross section (N2): 182.7 Å²

## NC(=O)c1ccc[n+]([C@@H]2O[C@H](COP(=O)([O-])OP(=O)(O)OC[C@H]3O[C@@H](n4cnc5c(N)ncnc54)[C@H](O)[C@@H]3O)[C@@H](O)[C@H]2O)c1 [Nicotinamide adenine dinucleotide (NAD)]
[M+H]+
  collision cross section (N2): 226.7 Å²

## O=c1[nH]cc([C@@H]2O[C@H](CO)[C@@H](O)[C@H]2O)c(=O)[nH]1 [Pseudouridine]
[M+Na]+
  collision cross section (N2): 159 Å²
[M-H]-
  collision cross section (N2): 145.23 Å²

## O=C(O)C(=O)CC1(C(=O)O)C=CC(O)C=C1 (centres undefined) [Prephenate]
[M+Na]+
  collision cross section (N2): 155 Å²

## NC(CSCC[C@H](N)C(=O)O)C(=O)O (some centres undefined) [Allocystathionine]
[M+H]+
  collision cross section (N2): 146.7 Å²

## N[C@@H](CC(=O)O)C(=O)N[C@@H](Cc1ccccc1)C(=O)O [L-Aspartyl-L-phenylalanine]
[M+H]+
  collision cross section (N2): 164.9 Å²
[M+Na-2H]-
  collision cross section (N2): 162.34 Å²

## Nc1nc(=O)c2ncn([C@H]3C[C@H](O)[C@@H](COP(=O)(O)O)O3)c2[nH]1 [2'-Deoxyguanosine 5'-monophosphate]
[M+Na-2H]-
  collision cross section (N2): 167.93 Å²
[M+Na]+
  collision cross section (N2): 169.7 Å²

## O=c1nc2[nH][nH]cc-2c(=O)[nH]1 [Oxypurinol]
[M+H]+
  collision cross section (N2): 126.7 Å²
[M-H]-
  collision cross section (N2): 120.1 Å²

## O=C(O)/C=C/c1c[nH]c2ccccc12 [Indole-3-acrylic acid]
[M-H]-
  collision cross section (N2): 134.53 Å²

## O=C(O)CCCCCCCCCCCCCCCO [16-Hydroxypalmitic acid]
[M+Na]+
  collision cross section (N2): 178.2 Å²
[M-H]-
  collision cross section (N2): 168.99 Å²

## CO[C@@H]1[C@H](O)[C@@H](CO)O[C@H]1n1cnc2c(N)ncnc21 [2'-O-methyladenosine]
[M+Na]+
  collision cross section (N2): 168.7 Å²
[M-H]-
  collision cross section (N2): 158.37 Å²

## CC(C)C(O)(CC(=O)O)C(=O)O (centres undefined) [2-Isopropylmalic acid]
[M+Na]+
  collision cross section (N2): 140.9 Å²
[M-H]-
  collision cross section (N2): 128.12 Å²

## C[n+]1cccc(C(N)=O)c1 [1-Methylnicotinamide]
[M]+
  collision cross section (N2): 126.4 Å²

## Nc1ncnc2c1ncn2[C@@H]1O[C@H](COP(=O)(O)OP(=O)(O)OC[C@H]2O[C@@H]([n+]3cccc(C(=O)O)c3)[C@H](O)[C@@H]2O)[C@@H](O)[C@H]1O [Nicotinic acid adenine dinucleotide]
[M+2Na-3H]-
  collision cross section (N2): 238.49 Å²

## O=C(O)CCCCCCCCC(=O)O [Sebacic acid]
[M-H]-
  collision cross section (N2): 141.9 Å²

## O=c1nc[nH]c2c1ncn2[C@H]1C[C@H](O)[C@@H](COP(=O)(O)O)O1 [2'-Deoxyinosine 5'-monophosphate]
[M+Na-2H]-
  collision cross section (N2): 161.59 Å²
[M+Na]+
  collision cross section (N2): 166.8 Å²

## NC(Cc1ccccc1O)C(=O)O (racemic) [DL-O-tyrosine]
[M+H]+
  collision cross section (N2): 141.4 Å²
[M-H]-
  collision cross section (N2): 134.25 Å²

## CC1=C(/C=C/C(C)=C/C=C/C(C)=C/C(=O)O)C(C)(C)CCC1 [All-trans-retinoic acid]
[M-H]-
  collision cross section (N2): 203.42 Å²

## CC(C)CCC[C@@H](C)[C@H]1CC[C@H]2C3=CC[C@H]4C[C@@H](O)CC[C@]4(C)[C@H]3CC[C@]12C [Lathosterol]
[M+H-H2O]+
  collision cross section (N2): 204.5 Å²

## CC(=O)NCCCCCN [N-Acetylcadaverine]
[M+H]+
  collision cross section (N2): 132.9 Å²
[M-H]-
  collision cross section (N2): 131.77 Å²

## Cn1c(=O)[nH]c2[nH]c(=O)n(C)c2c1=O [1,7-Dimethyluric acid]
[M-H]-
  collision cross section (N2): 134.06 Å²

## O=C(O)CCc1cccc(O)c1 [3-(3-Hydroxyphenyl)propanoic acid]
[M-H]-
  collision cross section (N2): 136.11 Å²

## COc1ccc2[nH]cc(CCN)c2c1 [5-Methoxytryptamine]
[M-H]-
  collision cross section (N2): 141.18 Å²

## Nc1ccn(C2O[C@H](CO)[C@H]3OP(=O)(O)O[C@@H]23)c(=O)n1 (some centres undefined) [Cytidine 2',3'-cyclic phosphate]
[M+H]+
  collision cross section (N2): 162.3 Å²
[M+Na-2H]-
  collision cross section (N2): 161.98 Å²

## NC(=O)CCCCC1CCSS1 (centres undefined) [Lipoamide]
[M+Na]+
  collision cross section (N2): 150.5 Å²

## Nc1ccn([C@H]2C[C@H](O)[C@@H](COP(=O)(O)OP(=O)(O)OP(=O)(O)O)O2)c(=O)n1 [dCTP]
[M+H]+
  collision cross section (N2): 184.9 Å²

## OCC1(O)OC[C@@H](O)[C@H](O)[C@@H]1O (stereo partly drawn) [D-Tagatose]
[M+Na]+
  collision cross section (N2): 139 Å²
[M-H]-
  collision cross section (N2): 129.77 Å²

## CCCCCCCCCCCCC/C=C/[C@@H](O)[C@H](CO)NC(=O)CCCCCCCCCCCCCCCCC [N-Stearoylsphingosine]
[M+Na]+
  collision cross section (N2): 256.4 Å²
[M-H]-
  collision cross section (N2): 248.67 Å²

## CC(C)(CO)[C@@H](O)C(=O)NCCCO [Pantothenol]
[M+H]+
  collision cross section (N2): 144.7 Å²
[M-H]-
  collision cross section (N2): 141.49 Å²

## CC(C)=CCC/C(C)=C/CC/C(C)=C/CC/C=C(\C)CC/C=C(\C)CCC=C(C)C [Squalene]
[M+H]+
  collision cross section (N2): 210.9 Å²

## NCCc1c[nH]c2ccccc12 [Tryptamine]
[M+H-H2O]+
  collision cross section (N2): 125.1 Å²
[M-H]-
  collision cross section (N2): 131.55 Å²

## Cc1ncc(COP(=O)(O)O)c(CO)c1O [Pyridoxine 5-phosphate]
[M+H]+
  collision cross section (N2): 150.5 Å²

## CC(C)C(O)C(=O)O (centres undefined) [2-Hydroxy-3-methylbutyric acid]
[M-H]-
  collision cross section (N2): 118.65 Å²

## CCCCCC(=O)NCC(=O)O [Hexanoylglycine]
[M-H]-
  collision cross section (N2): 144.64 Å²

## O=C1CC[C@@H](C(=O)O)N1 [L-Pyroglutamic acid]
[M+H]+
  collision cross section (N2): 130.6 Å²
